Measurements from ChEMBL document CHEMBL1131583, “Structure-based design and synthesis of lipophilic 2,4-diamino-6-substituted quinazolines and their evaluation as inhibitors of dihydrofolate reductases and potential antitumor agents” (J Med Chem, 1998).

What was measured:
[1] = target: T1, Dihydrofolate reductase (Lactobacillus casei, UniProt P00381)
Description: Inhibitory activity against Dihydrofolate reductase from Lactobacillus casei (lcDHFR)

[2] = target: T2, Dihydrofolate reductase (Pneumocystis carinii, UniProt P16184)
T2 sequence (P16184 whole entry): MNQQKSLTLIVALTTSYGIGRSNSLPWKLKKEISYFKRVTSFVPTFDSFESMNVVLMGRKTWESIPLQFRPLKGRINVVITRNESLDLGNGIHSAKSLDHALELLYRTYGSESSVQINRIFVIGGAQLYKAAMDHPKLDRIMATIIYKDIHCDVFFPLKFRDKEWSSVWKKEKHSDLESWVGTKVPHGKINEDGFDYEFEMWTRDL
Description: Inhibitory activity against Dihydrofolate reductase from Pneumocystis carinii (pcDHFR)

[3] = target: T1, Dihydrofolate reductase; assay: Inhibitory activity against Dihydrofolate reductase from Lactobacillus casei ( lcDHFR); parameters: species or system Lacticaseibacillus casei
[4] = target: T3, Bifunctional dihydrofolate reductase-thymidylate synthase (Toxoplasma gondii, UniProt Q07422)
T3 sequence (Q07422 whole entry): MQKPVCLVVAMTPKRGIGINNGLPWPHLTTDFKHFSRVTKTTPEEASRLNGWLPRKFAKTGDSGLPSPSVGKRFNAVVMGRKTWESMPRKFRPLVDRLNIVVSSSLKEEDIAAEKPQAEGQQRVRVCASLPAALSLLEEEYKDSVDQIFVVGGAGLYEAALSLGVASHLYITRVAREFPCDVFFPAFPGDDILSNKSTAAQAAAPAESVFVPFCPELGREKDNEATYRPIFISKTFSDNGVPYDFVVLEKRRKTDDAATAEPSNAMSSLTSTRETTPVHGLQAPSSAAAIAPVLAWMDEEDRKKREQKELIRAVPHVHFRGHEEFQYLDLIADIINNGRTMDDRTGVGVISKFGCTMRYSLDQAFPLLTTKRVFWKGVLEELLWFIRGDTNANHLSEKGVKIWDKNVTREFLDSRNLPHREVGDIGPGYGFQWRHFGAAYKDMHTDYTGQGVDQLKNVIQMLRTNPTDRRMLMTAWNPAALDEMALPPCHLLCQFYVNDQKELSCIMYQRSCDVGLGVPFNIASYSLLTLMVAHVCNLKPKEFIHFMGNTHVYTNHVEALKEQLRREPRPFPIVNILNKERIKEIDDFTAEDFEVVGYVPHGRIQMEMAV
Description: Inhibitory activity against Dihydrofolate reductase from Toxoplasma gondii (tgDHFR)

[5] = target: T3, Bifunctional dihydrofolate reductase-thymidylate synthase; assay: Inhibition of recombinant Dihydrofolate reductase from Toxoplasma gondii (tgDHFR)
[6] = target: T4, Dihydrofolate reductase (Homo sapiens, UniProt P00374)
T4 sequence (P00374 whole entry): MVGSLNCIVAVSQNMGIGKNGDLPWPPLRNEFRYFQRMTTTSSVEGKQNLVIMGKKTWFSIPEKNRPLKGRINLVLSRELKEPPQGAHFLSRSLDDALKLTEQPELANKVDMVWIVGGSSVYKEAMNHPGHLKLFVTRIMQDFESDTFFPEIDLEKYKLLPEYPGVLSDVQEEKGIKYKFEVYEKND
Description: Inhibitory activity against Dihydrofolate reductase from recombinant human (hDHFR)

[7] = target: T5, Dihydrofolate reductase (Rattus norvegicus, UniProt Q920D2); assay: Inhibitory activity against Dihydrofolate reductase from rat liver (rlDHFR)
T5 sequence (Q920D2 whole entry): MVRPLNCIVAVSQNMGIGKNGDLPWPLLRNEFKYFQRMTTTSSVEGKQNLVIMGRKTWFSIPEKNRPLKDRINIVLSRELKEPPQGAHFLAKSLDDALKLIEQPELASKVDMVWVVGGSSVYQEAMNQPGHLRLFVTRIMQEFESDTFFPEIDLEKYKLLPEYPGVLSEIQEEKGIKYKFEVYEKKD

[8] = Partition coefficient (logP); assay type: physicochemical; conditions: octanol/water
[9] = target: T3, Bifunctional dihydrofolate reductase-thymidylate synthase; assay: Inhibitory activity against recombinant Dihydrofolate reductase from Toxoplasma gondii (tgDHFR)

T1 sequence (P00381 whole entry): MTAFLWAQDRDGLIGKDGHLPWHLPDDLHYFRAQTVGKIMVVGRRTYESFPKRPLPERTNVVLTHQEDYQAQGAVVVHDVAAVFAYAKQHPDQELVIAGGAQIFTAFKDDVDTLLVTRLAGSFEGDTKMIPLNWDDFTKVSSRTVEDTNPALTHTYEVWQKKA

| SMILES | IC50 [1] | IC50 [2] | IC50 [3] | IC50 [4] | IC50 [5] | IC50 [6] | IC50 [7] | logP [8] | IC50 [9] |
| --- | --- | --- | --- | --- | --- | --- | --- | --- | --- |
| COc1cc(NCc2ccc3nc(N)nc(N)c3c2C)cc(OC)c1OC [TRIMETREXATE] | 260 nM |  |  |  |  |  |  |  |  |
| COc1ccc(OC)c(CN(C)c2ccc3nc(N)nc(N)c3c2)c1 |  | 87 nM | 130 nM | 30 nM | 3.9 nM |  |  |  |  |
| CN(Cc1cccc2c1CCCC2)c1ccc2nc(N)nc(N)c2c1 | 21 nM | 17 nM |  |  |  | 27 nM | 17 nM |  |  |
| COc1cc(OC)c(CNc2ccc3nc(N)nc(N)c3c2)c(OC)c1 | 37000 nM | 116000 nM |  |  |  | 25000 nM | 22700 nM |  |  |
| COc1ccc(CN(C)c2ccc3nc(N)nc(N)c3c2)c(OC)c1OC | 59 nM | 52 nM |  | 17 nM | 5.4 nM | 140 nM | 19 nM |  |  |
| COc1cc(CNc2ccc3nc(N)nc(N)c3c2)cc(OC)c1 | 2300 nM | 2200 nM |  | 120 nM | 840 nM | 28000 nM | 840 nM |  |  |
| COc1cc(CNc2ccc3nc(N)nc(N)c3c2)cc(OC)c1OC | 2800 nM | 6800 nM |  | 84 nM | 920 nM | 23000 nM | 900 nM |  |  |
| COc1ccc(OC)c(CNc2ccc3nc(N)nc(N)c3c2)c1 | 3000 nM | 4600 nM |  | 160 nM | 1100 nM | 28000 nM | 1100 nM |  |  |
| COc1ccc(CNc2ccc3nc(N)nc(N)c3c2)c(OC)c1OC | 2000 nM | 4900 nM |  | 190 nM | 810 nM | 27000 nM | 1300 nM |  |  |
| COc1ccc(CNc2ccc3nc(N)nc(N)c3c2)c(OC)c1 | 2100 nM | 4400 nM |  | 170 nM | 780 nM |  | 1200 nM |  |  |
| COc1cc(CN(C)c2cnc3nc(N)nc(N)c3c2)cc(OC)c1 |  |  |  |  |  |  |  | 1.87 |  |
| COc1cc(OC)c(OC)cc1CNc1ccc2nc(N)nc(N)c2c1 | 1600 nM | 5400 nM |  | 124 nM | 540 nM |  | 1600 nM |  |  |
| COc1ccc(OC)c(CNc2cnc3nc(N)nc(N)c3c2)c1 |  |  |  |  |  |  |  | 1.32 |  |
| Nc1nc(N)c2cc(NCc3ccccc3)ccc2n1 | 2700 nM | 8700 nM |  | 320 nM |  | 2400 nM | 660 nM |  | 1400 nM |
| COc1ccc(CN(C)c2ccc3nc(N)nc(N)c3c2)c(OC)c1 | 120 nM | 100 nM |  | 39 nM | 3.9 nM | 50 nM | 43 nM |  |  |
| COc1cc(CN(C)c2ccc3nc(N)nc(N)c3c2)cc(OC)c1 |  | 23.8 nM | 37 nM | 9.3 nM | 4.7 nM | 11 nM | 8.2 nM |  |  |
| COc1ccc(OC)c(CN(C)c2cnc3nc(N)nc(N)c3c2)c1 |  |  |  |  |  |  |  | 1.87 |  |
| COc1cc(CNc2cnc3nc(N)nc(N)c3c2)cc(OC)c1OC |  |  |  | 395 nM |  |  |  | 0.89 |  |
